Earlier results in US9125929B2, “Trauma therapy” (Hibernation Therapeutics, A KF LLC, priority 2006, dated 2015).
pKi: −log10 of the molar value.

Assays:
NK(2) receptor = target: T1, NK(2) receptor (Homo sapiens, UniProt P21452); conditions: NK(1) over NK(2)
T1 sequence (P21452 1-398): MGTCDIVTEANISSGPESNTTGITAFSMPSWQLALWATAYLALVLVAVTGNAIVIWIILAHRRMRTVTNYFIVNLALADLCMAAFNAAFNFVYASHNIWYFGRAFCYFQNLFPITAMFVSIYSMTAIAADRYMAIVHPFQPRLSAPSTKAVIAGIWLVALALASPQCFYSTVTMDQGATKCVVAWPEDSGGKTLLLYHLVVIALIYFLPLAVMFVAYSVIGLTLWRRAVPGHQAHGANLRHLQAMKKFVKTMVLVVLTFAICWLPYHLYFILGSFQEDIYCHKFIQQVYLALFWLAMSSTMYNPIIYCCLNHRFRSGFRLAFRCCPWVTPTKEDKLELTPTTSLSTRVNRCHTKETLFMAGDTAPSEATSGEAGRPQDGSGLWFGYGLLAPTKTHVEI

human NK(1) receptor = human NK(1) receptor (Homo sapiens, UniProt P25103); conditions: read-out: K(i) for the human NK(1) receptor
Sequence of human NK(1) receptor (P25103 whole entry): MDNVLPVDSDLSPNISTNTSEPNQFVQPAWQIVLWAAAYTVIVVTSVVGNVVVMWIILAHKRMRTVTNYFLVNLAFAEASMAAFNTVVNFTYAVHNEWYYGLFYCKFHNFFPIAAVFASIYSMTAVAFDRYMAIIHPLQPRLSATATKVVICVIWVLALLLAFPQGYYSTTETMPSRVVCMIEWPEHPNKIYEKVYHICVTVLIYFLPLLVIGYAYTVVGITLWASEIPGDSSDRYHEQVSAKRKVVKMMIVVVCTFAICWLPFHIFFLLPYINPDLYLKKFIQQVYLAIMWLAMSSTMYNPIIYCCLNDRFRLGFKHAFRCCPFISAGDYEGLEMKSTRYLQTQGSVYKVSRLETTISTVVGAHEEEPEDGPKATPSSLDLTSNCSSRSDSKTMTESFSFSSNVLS

NK(3) receptor = target: T2, NK(3) receptor (Homo sapiens, UniProt P29371); conditions: NK(1) over NK(3)
T2 sequence (P29371 1-465): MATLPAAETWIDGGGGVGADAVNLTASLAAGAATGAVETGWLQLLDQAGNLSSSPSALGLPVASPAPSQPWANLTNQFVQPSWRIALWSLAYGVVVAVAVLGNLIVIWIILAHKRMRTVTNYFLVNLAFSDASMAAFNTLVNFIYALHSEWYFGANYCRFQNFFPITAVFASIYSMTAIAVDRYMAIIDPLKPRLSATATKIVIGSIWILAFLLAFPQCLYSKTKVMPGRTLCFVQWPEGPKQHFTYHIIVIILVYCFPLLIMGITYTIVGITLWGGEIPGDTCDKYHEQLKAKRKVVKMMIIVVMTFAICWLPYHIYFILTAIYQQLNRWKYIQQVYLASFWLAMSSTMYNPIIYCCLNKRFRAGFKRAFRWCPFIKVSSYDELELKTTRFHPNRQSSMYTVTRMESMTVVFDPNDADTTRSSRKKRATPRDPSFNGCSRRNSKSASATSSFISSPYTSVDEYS

[1] = orally and/or intravenous, 10, 25, 50 and 100 mg/kg body weight
[2] = 400 mg daily tablets

Cc1cccc(C)c1NC(=O)C[C@H]1CCN(C(=O)c2cc(C(F)(F)F)cc(C(F)(F)F)c2)[C@@H](Cc2ccccc2)C1.O=C(O)C[C@H](O)C(=O)O (relative stereo) [R116301, (2R-trans)-4-[1-[3,5-bis(trifluoromethyl)benzoyl]-2-(phenylmethyl)-4-piperidinyl]-N-(2,6-dimethylphenyl)-1-acetamide(S)-Hydroxybutanedioate]
selectivity toward NK(2) receptor (NK(2) receptor): over 200 fold
pKi (human NK(1) receptor): 9.35
selectivity toward NK(3) receptor (NK(3) receptor): over 200 fold

NC(=O)c1ncn([C@@H]2O[C@H](CO)[C@@H](O)[C@H]2O)c1N [Acadesine, 5-amino-4-imidazole carboxamide ribonucleoside]
safety in humans [1]: safe

OCCN(CCO)c1nc(N2CCCCC2)c2nc(N(CCO)CCO)nc(N3CCCCC3)c2n1 [Dipyridamole]
plasma level [2]: about 0.4 microgram/ml
plasma level (concentration) [2]: ~800 nM

Nc1ncnc2c1ncn2[C@@H]1O[C@H](CO)[C@@H](O)[C@H]1O [adenosine, 6-amino-9-β-D-ribofuranosyl-9H-purine]
half life in the blood: about 10 seconds
